# Calls of active or inactive are those of the source. The calls are words filed in the database; no cut-off is given here.
# Legend:
# Protein smoothened [1] = molecular target: Protein smoothened (Mus musculus, UniProt P56726); assay: Inhibition of SMO in mouse NIH/3T3 cells assessed as inhibition of SAG-induced hedgehog-mediated luminescence signaling by GRE-luciferase reporter gene assay; format: cell-based
# Protein smoothened [2] = molecular target: Protein smoothened (Homo sapiens, UniProt Q99835); assay: Inhibition of human Smo expressed in human U2OS cells assessed as reduction in BODIPY-cyclopamine fluorescence signaling by competitive displacement assay; format: cell-based
# [3] = molecular target: T1, Phosphatidylinositol 4,5-bisphosphate 3-kinase catalytic subunit alpha isoform (Homo sapiens, UniProt P42336); assay: Inhibition of PI3Kalpha (unknown origin) assessed as reduction in luminescence signaling at 1 uM by kinase-Glo plus luminescent kinase assay
# [4] = molecular target: T1, Phosphatidylinositol 4,5-bisphosphate 3-kinase catalytic subunit alpha isoform; assay: Inhibition of PI3Kalpha (unknown origin) assessed as reduction in luminescence signaling by kinase-Glo plus luminescent kinase assay
# [5] = Solubility of the compound; format: physicochemical
# [6] = molecular target: T2, Phosphatidylinositol 4,5-bisphosphate 3-kinase catalytic subunit delta isoform (Homo sapiens) (UniProt O00329); assay: Inhibition of N-terminal poly-His tagged human p110-delta expressed in Sf9 cells incubated for 20 mins by alpha screen assay
# T2 sequence (whole entry): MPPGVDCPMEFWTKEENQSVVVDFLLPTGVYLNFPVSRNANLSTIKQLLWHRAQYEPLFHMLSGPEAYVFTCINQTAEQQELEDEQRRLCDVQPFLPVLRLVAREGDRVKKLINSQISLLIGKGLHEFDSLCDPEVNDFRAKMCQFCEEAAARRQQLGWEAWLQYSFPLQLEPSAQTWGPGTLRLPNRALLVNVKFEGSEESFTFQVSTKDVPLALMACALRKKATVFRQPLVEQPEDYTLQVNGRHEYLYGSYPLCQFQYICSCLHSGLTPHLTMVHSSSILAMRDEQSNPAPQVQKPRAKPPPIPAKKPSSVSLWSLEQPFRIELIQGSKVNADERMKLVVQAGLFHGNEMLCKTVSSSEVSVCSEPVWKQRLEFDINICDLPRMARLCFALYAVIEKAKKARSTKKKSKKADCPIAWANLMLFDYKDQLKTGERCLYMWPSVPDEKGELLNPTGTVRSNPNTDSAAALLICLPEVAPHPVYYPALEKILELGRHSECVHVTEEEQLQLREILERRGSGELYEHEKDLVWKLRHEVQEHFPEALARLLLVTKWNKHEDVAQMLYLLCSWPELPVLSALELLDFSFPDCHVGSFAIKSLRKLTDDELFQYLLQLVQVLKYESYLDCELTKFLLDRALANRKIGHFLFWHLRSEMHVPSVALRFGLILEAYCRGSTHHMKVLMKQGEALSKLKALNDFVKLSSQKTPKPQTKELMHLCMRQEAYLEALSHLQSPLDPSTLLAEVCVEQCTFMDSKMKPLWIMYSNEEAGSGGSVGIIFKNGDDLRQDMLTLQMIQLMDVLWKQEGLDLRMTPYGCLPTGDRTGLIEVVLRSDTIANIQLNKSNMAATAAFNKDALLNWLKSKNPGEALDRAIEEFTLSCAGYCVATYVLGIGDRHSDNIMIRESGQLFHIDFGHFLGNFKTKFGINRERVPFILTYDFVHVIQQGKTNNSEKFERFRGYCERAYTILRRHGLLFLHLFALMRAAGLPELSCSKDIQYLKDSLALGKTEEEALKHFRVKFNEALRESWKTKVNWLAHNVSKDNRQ
# Chain of Protein smoothened (Mus musculus, UniProt P56726) (P56726 whole entry): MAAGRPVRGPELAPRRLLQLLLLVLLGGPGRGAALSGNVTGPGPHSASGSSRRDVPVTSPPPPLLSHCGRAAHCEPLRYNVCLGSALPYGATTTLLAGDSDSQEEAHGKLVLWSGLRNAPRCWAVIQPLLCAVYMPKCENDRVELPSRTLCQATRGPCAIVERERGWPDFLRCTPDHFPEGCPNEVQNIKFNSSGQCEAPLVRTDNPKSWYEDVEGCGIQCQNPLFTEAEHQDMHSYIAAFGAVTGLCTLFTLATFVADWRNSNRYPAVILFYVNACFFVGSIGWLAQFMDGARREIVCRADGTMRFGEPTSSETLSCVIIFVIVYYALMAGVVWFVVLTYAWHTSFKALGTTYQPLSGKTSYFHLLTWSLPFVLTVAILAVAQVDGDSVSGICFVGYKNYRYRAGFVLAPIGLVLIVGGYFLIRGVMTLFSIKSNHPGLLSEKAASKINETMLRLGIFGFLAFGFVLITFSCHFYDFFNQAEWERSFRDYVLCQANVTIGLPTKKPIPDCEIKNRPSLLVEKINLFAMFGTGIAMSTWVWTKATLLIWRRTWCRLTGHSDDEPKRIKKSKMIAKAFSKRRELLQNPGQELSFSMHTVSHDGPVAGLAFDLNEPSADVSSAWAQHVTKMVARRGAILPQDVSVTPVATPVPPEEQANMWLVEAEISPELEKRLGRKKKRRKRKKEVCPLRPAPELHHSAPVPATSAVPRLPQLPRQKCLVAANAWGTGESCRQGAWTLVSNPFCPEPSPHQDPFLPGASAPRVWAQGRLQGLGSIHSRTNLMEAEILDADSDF
# T1 sequence (P42336 whole entry, canonical isoform): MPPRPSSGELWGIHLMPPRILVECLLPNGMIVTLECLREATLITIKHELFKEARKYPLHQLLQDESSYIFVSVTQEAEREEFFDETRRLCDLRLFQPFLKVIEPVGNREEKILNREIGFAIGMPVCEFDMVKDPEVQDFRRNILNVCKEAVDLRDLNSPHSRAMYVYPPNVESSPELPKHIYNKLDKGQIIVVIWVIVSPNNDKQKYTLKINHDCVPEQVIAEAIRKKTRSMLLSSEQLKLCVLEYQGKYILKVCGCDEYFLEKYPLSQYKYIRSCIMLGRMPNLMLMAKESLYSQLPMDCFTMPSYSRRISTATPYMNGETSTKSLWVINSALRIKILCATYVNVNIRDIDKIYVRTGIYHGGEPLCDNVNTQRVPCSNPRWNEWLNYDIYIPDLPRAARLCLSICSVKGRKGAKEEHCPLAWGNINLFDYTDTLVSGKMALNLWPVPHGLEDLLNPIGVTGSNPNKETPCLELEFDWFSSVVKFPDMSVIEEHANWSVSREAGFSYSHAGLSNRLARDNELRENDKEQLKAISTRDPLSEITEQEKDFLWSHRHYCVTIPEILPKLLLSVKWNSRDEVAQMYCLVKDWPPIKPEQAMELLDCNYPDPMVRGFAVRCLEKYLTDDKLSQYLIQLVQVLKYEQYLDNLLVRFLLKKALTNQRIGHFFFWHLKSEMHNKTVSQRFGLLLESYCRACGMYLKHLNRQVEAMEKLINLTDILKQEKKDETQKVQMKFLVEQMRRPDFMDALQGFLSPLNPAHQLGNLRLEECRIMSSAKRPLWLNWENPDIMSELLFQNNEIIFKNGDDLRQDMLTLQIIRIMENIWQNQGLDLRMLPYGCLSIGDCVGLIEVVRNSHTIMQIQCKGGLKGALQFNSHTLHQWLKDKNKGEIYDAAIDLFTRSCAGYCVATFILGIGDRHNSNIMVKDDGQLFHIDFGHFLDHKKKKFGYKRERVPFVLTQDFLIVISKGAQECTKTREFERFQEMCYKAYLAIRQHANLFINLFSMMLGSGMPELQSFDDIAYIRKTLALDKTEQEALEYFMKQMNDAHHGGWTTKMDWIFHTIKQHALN
# Chain of Protein smoothened (Homo sapiens, UniProt Q99835) (Q99835 whole entry, canonical isoform): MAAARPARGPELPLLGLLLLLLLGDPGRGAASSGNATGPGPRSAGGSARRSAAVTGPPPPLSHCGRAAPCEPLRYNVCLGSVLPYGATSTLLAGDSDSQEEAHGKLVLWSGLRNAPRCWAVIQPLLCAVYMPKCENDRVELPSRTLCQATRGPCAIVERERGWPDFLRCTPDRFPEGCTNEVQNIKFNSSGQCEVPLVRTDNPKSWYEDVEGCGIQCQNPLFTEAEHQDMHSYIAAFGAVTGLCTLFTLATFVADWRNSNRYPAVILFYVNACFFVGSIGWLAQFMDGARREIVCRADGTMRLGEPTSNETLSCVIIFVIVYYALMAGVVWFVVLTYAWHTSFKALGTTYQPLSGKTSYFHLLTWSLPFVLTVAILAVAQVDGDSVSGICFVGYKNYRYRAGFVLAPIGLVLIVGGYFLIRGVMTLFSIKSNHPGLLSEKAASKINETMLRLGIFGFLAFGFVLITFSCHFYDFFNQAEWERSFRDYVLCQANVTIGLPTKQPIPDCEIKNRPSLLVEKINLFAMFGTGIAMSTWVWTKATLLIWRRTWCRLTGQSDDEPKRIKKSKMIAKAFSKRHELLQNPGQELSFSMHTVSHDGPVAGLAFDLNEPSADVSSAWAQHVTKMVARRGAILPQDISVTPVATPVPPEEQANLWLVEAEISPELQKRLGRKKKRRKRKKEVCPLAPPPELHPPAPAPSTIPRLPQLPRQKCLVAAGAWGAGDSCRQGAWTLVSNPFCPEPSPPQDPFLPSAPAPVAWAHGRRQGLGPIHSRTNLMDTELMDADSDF
SMILES,IC50 (Protein smoothened [1]) [nM],also measured
O=C(Nc1cc(-c2ccc3nc(NC4CC4)sc3c2)cnc1Cl)c1ccccc1,210,–
CC(=O)Nc1nc2ccc(-c3cnc(Cl)c(NC(=O)C4CC4)c3)cc2s1,> 10000,–
CC(=O)Nc1nc2ccc(-c3cnc(Cl)c(NC(=O)c4ccccc4)c3)cc2s1,64,IC50 (Protein smoothened [2]): 5.6 nM; inhibition [3]: 9%
CC(=O)Nc1nc2ccc(-c3cnc(Cl)c(NC(=O)c4cccc(Cl)c4)c3)cc2s1,41,IC50 (Protein smoothened [2]): 10 nM; inhibition [3]: 93%; IC50 [4]: 980 nM
O=C(Nc1cc(-c2ccc3nc(NCC4CC4)sc3c2)cnc1Cl)c1cccc(Cl)c1,190,–
CC(=O)Nc1nc2ccc(-c3cnc(Cl)c(NC(=O)Cc4ccccc4)c3)cc2s1,3400,–
O=C(Nc1cc(-c2ccc3nc(NC4CC4)sc3c2)cnc1Cl)c1cccc(Cl)c1,150,–
CC(=O)Nc1nc2ccc(-c3cnc(Cl)c(NC(C#N)c4ccccc4)c3)cc2s1 (configuration not stated),100,inhibition [3]: 85%; IC50 [4]: 490 nM
CC(=O)Nc1nc2ccc(-c3cnc(Cl)c(NCc4ccccc4)c3)cc2s1,940,–
O=C(Nc1cc(-c2ccc3nc(NCC4CC4)sc3c2)cnc1Cl)c1ccccc1,150,–

# Continued, in another order:
IC50 (Protein smoothened [1]) [nM],SMILES,also measured
4100,CC(=O)Nc1nc2ccc(-c3cnc(Cl)c(NC(=O)c4ccccc4Cl)c3)cc2s1,–
> 10000,CC(=O)Nc1nc2ccc(-c3cnc(Cl)c(NC(=O)c4ccc(Cl)cc4)c3)cc2s1,–
170,CC(=O)Nc1nc2ccc(-c3cnc(Cl)c(NC(=O)c4ccc(F)cc4)c3)cc2s1,inhibition [3]: 48%
120,CC(=O)Nc1nc2ccc(-c3cnc(Cl)c(NS(=O)(=O)c4ccc(F)cc4)c3)cc2s1,solubility [5]: Insoluble; inhibition [6]: Active
5000,CC(=O)Nc1nc2ccc(-c3cnc(Cl)c(NC(=O)c4cccc(F)c4)c3)cc2s1,–
> 10000,CC(=O)Nc1nc2ccc(-c3cnc(Cl)c(NC(=O)c4ccccc4F)c3)cc2s1,–
810,CC(=O)Nc1nc2ccc(-c3cnc(Cl)c(NC(=O)c4ccc(C)cc4)c3)cc2s1,–

# Source: ChEMBL document CHEMBL3603806, “Discovery of a 6-(pyridin-3-yl)benzo[d]thiazole template for optimization of hedgehog and PI3K/AKT/mTOR dual inhibitors” (Bioorg Med Chem Lett, 2015)
